The text below walks through data of patent US6326471A, “Immunogenic peptides of prostate specific antigen” (priority 1998, dated 2001).

The test system of assay [1] is antibody to the alpha subunit of the acetylcholine receptor. The settings on record: without added hydrophobic LI or AI residues; cited from earlier work.
A further assay deals with anti-whole PSA antibody. Put plainly: ELISA activity of PSA peptide segments with anti-whole PSA antibody. The class given is binding. The settings on record: average of "wet" and "dry" ELISA methods; rank 1 = most reactive of 14 peptides. The text has this:
The amino acid sequence of PSA was divided into fourteen peptide segments. Thirteen of the peptides were 19-mers to 21-mers and one peptide was a 16-mer. […] Two of the peptides lacked both the proline and the hydrophobic-hydrophilic-hydrophobic region descriptors. The combined presence of the two descriptors correlated extremely well with the immunodominance of PSA peptide segments. The six highest scoring PSA peptides in terms of ELISA activity with anti-whole PSA antibody had both characteristics as did the eighth best. Also, the presence of a central proline in a segment lacking the adjacent hydrophobic, hydrophilic, and hydrophobic region characteristic successfully predicted four of five subdominant (moderately ELISA reactive) epitopes, while the absence of both the proline and the hydrophobic-hydrophilic-hydrophobic region characteristics in a peptide segment correctly predicted the two least ELISA reactive peptide segments.

As to NPDVK, the “antibody binding of the peptide alone” value in assay [1] is “could not bind antibody alone”.

“YSTCSGDSGGPLVCNGVLQG [PSA peptide 186-204]” gave an ELISA activity rank in the assay with anti-whole PSA antibody of 11.
